Results reported in PMC3917699, “Glucoamylase of Caulobacter crescentus CB15: cloning and expression in Escherichia coli and functional identification” (AMB Express, 2014).

Target: T1, CauloGA (Protein A-CauloGA fusion) (Caulobacter vibrioides, UniProt Q9A613)
T1 construct: gene CC_2282; putative signal peptide removed; N-terminal Staphylococcus Protein A (synthetic ZZ domain) fusion kept; pEZZ18, E. coli HB101; IgG Sepharose; fusion 96 kDa, CauloGA about 82 kDa
Experiment: initial rate, glucose release (F-kit D-glucose), nonlinear regression
Type: biochemical
Conditions: apparent substrate inhibition constant
Excerpt: initial rate, glucose release (F-kit D-glucose), nonlinear regression on CauloGA (Protein A-CauloGA fusion)

T1 sequence (Q9A613 entry or part of it): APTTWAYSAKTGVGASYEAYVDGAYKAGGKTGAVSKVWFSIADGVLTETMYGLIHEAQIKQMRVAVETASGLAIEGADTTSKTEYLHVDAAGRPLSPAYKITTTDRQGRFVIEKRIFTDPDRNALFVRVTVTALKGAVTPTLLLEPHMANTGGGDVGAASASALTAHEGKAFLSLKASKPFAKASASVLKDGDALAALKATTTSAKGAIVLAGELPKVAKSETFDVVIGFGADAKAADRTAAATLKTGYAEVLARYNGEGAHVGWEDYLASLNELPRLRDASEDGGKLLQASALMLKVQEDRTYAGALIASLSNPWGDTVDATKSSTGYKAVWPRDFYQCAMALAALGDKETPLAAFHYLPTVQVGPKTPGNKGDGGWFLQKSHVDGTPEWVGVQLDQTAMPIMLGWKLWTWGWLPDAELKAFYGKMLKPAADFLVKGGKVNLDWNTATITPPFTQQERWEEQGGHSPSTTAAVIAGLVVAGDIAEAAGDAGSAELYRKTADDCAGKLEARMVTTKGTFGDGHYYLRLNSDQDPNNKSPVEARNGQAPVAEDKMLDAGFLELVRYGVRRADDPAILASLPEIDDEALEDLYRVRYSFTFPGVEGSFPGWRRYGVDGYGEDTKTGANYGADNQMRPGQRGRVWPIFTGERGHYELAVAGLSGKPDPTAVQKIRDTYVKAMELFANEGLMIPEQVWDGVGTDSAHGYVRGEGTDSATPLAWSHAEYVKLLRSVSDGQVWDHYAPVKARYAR

Row | SMILES | Ki^b (0-9 mM substrate, pH 5.0, 30°C) [µM] | other results
1 | OC[C@H]1O[C@H](O[C@H]2[C@H](O)[C@@H](O)[C@@H](O[C@H]3[C@H](O)[C@@H](O)[C@@H](O[C@H]4[C@H](O)[C@@H](O)[C@@H](O[C@H]5[C@H](O)[C@@H](O)C(O)O[C@@H]5CO)O[C@@H]4CO)O[C@@H]3CO)O[C@@H]2CO)[C@H](O)[C@@H](O)[C@@H]1O (stereo partly drawn) [Maltopentaose] | 920 ± 40 | 
2 | OC[C@H]1O[C@H](O[C@H]2[C@H](O)[C@@H](O)[C@@H](O[C@H]3[C@H](O)[C@@H](O)[C@@H](O[C@H]4[C@H](O)[C@@H](O)C(O)O[C@@H]4CO)O[C@@H]3CO)O[C@@H]2CO)[C@H](O)[C@@H](O)[C@@H]1O (stereo partly drawn) [Maltotetraose] |  | Ki^b (0-18 mM substrate, pH 5.0, 30°C): 1100 ± 60 µM
3 | OC[C@H]1O[C@H](O[C@H]2[C@H](O)[C@@H](O)[C@@H](O[C@H]3[C@H](O)[C@@H](O)[C@@H](O[C@H]4[C@H](O)[C@@H](O)[C@@H](O[C@H]5[C@H](O)[C@@H](O)[C@@H](O[C@H]6[C@H](O)[C@@H](O)[C@@H](O[C@H]7[C@H](O)[C@@H](O)C(O)O[C@@H]7CO)O[C@@H]6CO)O[C@@H]5CO)O[C@@H]4CO)O[C@@H]3CO)O[C@@H]2CO)[C@H](O)[C@@H](O)[C@@H]1O (stereo partly drawn) [Maltoheptaose] | 1250 ± 250 | 
4 | OC[C@H]1O[C@H](O[C@H]2[C@H](O)[C@@H](O)[C@@H](O[C@H]3[C@H](O)[C@@H](O)[C@@H](O[C@H]4[C@H](O)[C@@H](O)[C@@H](O[C@H]5[C@H](O)[C@@H](O)[C@@H](O[C@H]6[C@H](O)[C@@H](O)C(O)O[C@@H]6CO)O[C@@H]5CO)O[C@@H]4CO)O[C@@H]3CO)O[C@@H]2CO)[C@H](O)[C@@H](O)[C@@H]1O (stereo partly drawn) [Maltohexaose] | 1050 ± 80 | 
5 | OC[C@H]1O[C@H](O[C@H]2[C@H](O)[C@@H](O)[C@@H](O[C@H]3[C@H](O)[C@@H](O)C(O)O[C@@H]3CO)O[C@@H]2CO)[C@H](O)[C@@H](O)[C@@H]1O (stereo partly drawn) [Maltotriose] |  | Ki^b (0-18 mM substrate, pH 5.0, 30°C, text b46 prints approximately 4.2 mM): 4490 ± 310 µM
6 | OC[C@H]1O[C@H](O[C@H]2[C@H](O)[C@@H](O)C(O)O[C@@H]2CO)[C@H](O)[C@@H](O)[C@@H]1O (stereo partly drawn) [Maltose] |  | Ki^b (0-18 mM substrate, 50 mM acetate buffer pH 5.0, 30°C): 38200 ± 1110 µM
